# From patent US20230287138A1, “PROTEIN-DRUG CONJUGATES COMPRISING CAMPTOTHECIN ANALOGS AND METHODS OF USE THEREOF” (Regneron Pharmaceuticals, Inc., priority 2022, published 2023)
# Structures can show the parent of a compound that is named as a salt. Where two headings read alike, the source gives them in different places.
# Columns and labels:
# SK-BR-3 cells = test: In vitro cytotoxicity assay in SK-BR-3 cells (CellTiter-Glo 2.0); assay type: cell-based, human; conditions: for EC50: Homo sapiens
# Description: To test the ability of anti-Her2 drug conjugates (ADCs) of the present disclosure (see Table 5) to kill human cell lines, an in vitro cytotoxicity assay was performed. In vitro cytotoxicity of the ADCs, isotype control ADCs, and reference free payloads were evaluated using the CellTiter-Glo 2.0 Assay Kit (Promega, Cat #G9243), in which the quantity of ATP present is used to determine the number of viable cells in culture.
# The last well in each dilution series (untreated wells) served as blank controls containing only the media (ADCs) or media plus 0.2% DMSO (payloads) and was plotted as a continuation of the 3-fold serial dilution. Six days later, 100 μL of CellTiter Glo 2.0 was added to each well, plates were mixed for 2 minutes on an orbital shaker, and plates were incubated at room temperature for 10 minutes. Relative light units (RLUs) were measured on an Envision luminometer (PerkinElmer), and cell viability was expressed as a percentage of the untreated (100% viable) cells. IC50 values were determined using a four-parameter logistic equation over a 10-point dose response curve (GraphPad Prism). The maximum % kill was also determined for each test article as follows: 100−minimum percent viability.
# HCT-15 = HCT-15 data of payloads and linker-payloads (EC50, with or without verapamil); assay type: cell-based; conditions: payload
# [1] = Homo sapiens, HCT-15 cells, no verapamil, read-out: HCT-15 EC50
# [2] = HCT-15 cells plus verapamil, read-out: HCT-15 + verapamil EC50
SMILES,EC50 (HCT-15; [1]),EC50 (HCT-15; [2]),other results
CC[C@@]1(O)C(=O)OCc2c1cc1n(c2=O)Cc2c-1nc1cc(F)c(C)c3c1c2[C@@H](N)CC3 [Exatecan],,,"EC50 (SK-BR-3 cells; 144 h, Table 8, SK-BR-3, six days, concentrations corrected for DAR (effective payload concentration), read-out: SKBR3 EC50): 0.516 nM; EC50 (SK-BR-3 cells; SK-BR-3 cells, read-out: EC50 value): 0.516 nM; maximum % kill (SK-BR-3 cells; SK-BR-3 cells, 100 − minimum percent viability): ~95%"
"CC[C@@]1(O)C(=O)OCc2c1cc1n(c2=O)Cc2c-1nc1cc(F)c(C)c3c1c2[C@@H](NC(=O)[C@@H](N)Cc1ccccc1)CC3 [P5, (2S)-2-amino-N-[(10S,23S)-10-ethyl-18-fluoro-10-hydroxy-19-methyl-5,9-dioxo-8-oxa-4,15-diazahexacyclo[[14.7.1.0^2,^14.0^4,^13.0^6,^11.0^20,^24]]tetracosa-1,6(11),12,14,16,18,20(24)-heptaen-23-yl]-3-phenylpropanamide]",48.2 nM,4.2 nM,
"CC[C@@]1(O)C(=O)OCc2c1cc1n(c2=O)Cc2c-1nc1cc(F)c(C)c3c1c2[C@@H](NS(C)(=O)=O)CC3 [P6, N-[(10S,23S)-10-ethyl-18-fluoro-10-hydroxy-19-methyl-5,9-dioxo-8-oxa-4,15-diazahexacyclo[[14.7.1.0^2,^14.0^4,^13.0^6,^11.0^20,^24]]tetracosa-1,6(11),12,14,16,18,20(24)-heptaen-23-yl]methanesulfonamide]",7.45 nM,3.16 nM,
"CC[C@@]1(O)C(=O)OCc2c1cc1n(c2=O)Cc2c-1nc1cc(F)c(C)c3c1c2[C@@H](NCCS(C)(=O)=O)CC3 [P7, (10S,23S)-10-ethyl-18-fluoro-10-hydroxy-23-[(2-methanesulfonylethyl)amino]-19-methyl-8-oxa-4,15-diazahexacyclo[[14.7.1.0^2,^14.0^4,^13.0^6,^11.0^20,^24]]tetracosa-1,6(11),12,14,16,18,20(24)-heptaene-5,9-dione]",5.58 nM,1.69 nM,
"CC[C@@]1(O)C(=O)OCc2c1cc1n(c2=O)Cc2c-1nc1ccccc1c2CCNC(C)C [P8, Belotecan HCl salt, reference compound]",,3.09 nM,"EC50 (HCT-15; HCT-15 cells, no verapamil, read-out: HCT-15 EC50): 20 nM"
"CC[C@@]1(O)C(=O)OCc2c1cc1n(c2=O)Cc2c-1nc1ccccc1c2CCN(C(C)C)S(C)(=O)=O [P9, N-{2-[(19S)-19-ethyl-19-hydroxy-14,18-dioxo-17-oxa-3,13-diazapentacyclo[11.8.0.0^2,^11.0^4,^9.0^15,^20]henicosa-1(21),2,4,6,8,10,15(20)-heptaen-10-yl]ethyl}-N-(propan-2-yl)methanesulfonamide]",8.89 nM,3.03 nM,
"CC[C@@]1(O)C(=O)OCc2c1cc1n(c2=O)Cc2c-1nc1ccccc1c2CCN(CCO)C(C)C [P10, (19S)-19-ethyl-19-hydroxy-10-{2-[(2-hydroxyethyl)(propan-2-yl)amino]ethyl}-17-oxa-3,13-diazapentacyclo[11.8.0.0^2,^11.0^4,^9.0^15,^20]henicosa-1(21),2,4,6,8,10,15(20)-heptaene-14,18-dione]",8.6 nM,4.38 nM,
"CC[C@@]1(O)C(=O)OCc2c1cc1n(c2=O)Cc2c-1nc1cc(F)c(C)c3c1c2[C@@H](NC(=O)CO)CC3 [P12, Dxd, reference compound]",7.99 nM,,"EC50 (HCT-15; Homo sapiens, HCT-15 cells plus verapamil, read-out: HCT-15 + verapamil EC50): 4.18 nM"
"CC[C@@](O)(C(=O)NCCN)c1cc2n(c(=O)c1COC(C)=O)Cc1c-2nc2cc(F)c(C)c3c2c1[C@@H](NC(=O)COC(C)=O)CC3 [P13, {[(19S)-6-[(Acetyloxy)methyl]-7-[(1 S)-1-[(2-aminoethyl)carbamoyl]-1-hydroxypropyl]-14-fluoro-15-methyl-5-oxo-4,11-diazapentacyclo[10.7.1.0^2,^10.0^4,^9.0^16,^20]icosa-1,6,8,10,12,14,16(20)-heptaen-19-yl]carbamoyl}methyl acetate]",134 nM,,
"CC[C@@]1(O)C(=O)OCc2c1cc1n(c2=O)Cc2cc3cc(O)ccc3nc2-1 [P14, 10-hydroxy camptothecin, reference compound]",11.6 nM,6.79 nM,
"CC[C@@]1(O)C(=O)OCc2c1cc1n(c2=O)Cc2cc3cc(OC)ccc3nc2-1 [P15, (19S)-19-Ethyl-19-hydroxy-7-methoxy-17-oxa-3,13-diazapentacyclo[11.8.0.0^2,^11.0^4,^9.0^15,^20]henicosa-1(21),2,4,6,8,10,15(20)-heptaene-14,18-dione]",6.99 nM,4.47 nM,
"CCc1c2c(nc3ccc(O)cc13)-c1cc3c(c(=O)n1C2)COC(=O)[C@]3(O)CC [P16, 7-ethyl-10-hydroxycamptothecin, reference compound]",6.11 nM,4.77 nM,
"CCc1c2c(nc3ccc(OC)cc13)-c1cc3c(c(=O)n1C2)COC(=O)[C@]3(O)CC [P17, (19S)-10,19-Diethyl-19-hydroxy-7-methoxy-17-oxa-3,13-diazapentacyclo[11.8.0.0^2,^11.0^4,^9.0^15,^20]henicosa-1(21),2,4,6,8,10,15(20)-heptaene-14,18-dione]",1.59 nM,1.44 nM,
"CCc1c2c(nc3ccc(OC)cc13)-c1cc([C@@](O)(CC)C(=O)NCCN)c(COC(C)=O)c(=O)n1C2 [P18, {7-[(1 S)-1-[(2-Aminoethyl)carbamoyl]-1-hydroxypropyl]-12-ethyl-2-methoxy-9-oxo-9H,11H-indolizino[1,2-b]quinolin-8-yl}methyl acetate]",32.5 nM,32.8 nM,
"CC[C@@]1(O)C(=O)OCc2c1cc1n(c2=O)Cc2c-1nc1ccc(OC)cc1c2CO [P20, (19S)-19-Ethyl-19-hydroxy-10-(hydroxymethyl)-7-methoxy-17-oxa-3,13-diazapentacyclo[11.8.0.0^2,^11.0^4,^9.0^15,^20]henicosa-1(21),2,4,6,8,10,15(20)-heptaene-14,18-dione]",3.69 nM,2.4 nM,
"CC[C@@]1(O)C(=O)OCc2c1cc1n(c2=O)Cc2c-1nc1ccc(OC)cc1c2CN [P22, (19S)-10-(Aminomethyl)-19-ethyl-19-hydroxy-7-methoxy-17-oxa-3,13-diazapentacyclo[11.8.0.0^2,^11.0^4,^9.0^15,^20]henicosa-1(21),2,4,6,8,10,15(20)-heptaene-14,18-dione]",31.9 nM,40.5 nM,
"CC[C@@]1(O)C(=O)OCc2c1cc1n(c2=O)Cc2c-1nc1ccc(OC)cc1c2CNCCCN=[N+]=[N-] [P23, (S)-11-(((3-azidopropyl)amino)methyl)-4-ethyl-4-hydroxy-9-methoxy-1,12-dihydro-14H-pyrano[3′,4′:6,7]indolizino[1,2-b]quinoline-3,14(4H)-dione]",36.7 nM,,
"C#CCNCc1c2c(nc3ccc(OC)cc13)-c1cc3c(c(=O)n1C2)COC(=O)[C@]3(O)CC [P24, (S)-4-ethyl-4-hydroxy-9-methoxy-11-((prop-2-yn-1-ylamino)methyl)-1,12-dihydro-14H-pyrano[3′,4′:6,7]indolizino[1,2-b]quinoline-3,14(4H)-dione]",13.5 nM,,
"CC[C@@]1(O)C(=O)OCc2c1cc1n(c2=O)Cc2c-1nc1ccc(OC)cc1c2CN(C)Cc1ccc(OC)cc1 [P25, (S)-4-ethyl-4-hydroxy-9-methoxy-11-(((4-methoxybenzyl)(methyl)amino)methyl)-1,12-dihydro-14H-pyrano[3′,4′:6,7]indolizino[1,2-b]quinoline-3,14(4H)-dione]",46.8 nM,,
"CC[C@@]1(O)C(=O)OCc2c1cc1n(c2=O)Cc2c-1nc1ccc(OC)cc1c2CNCc1ccccc1 [P26, (S)-11-((benzylamino)methyl)-4-ethyl-4-hydroxy-9-methoxy-1,12-dihydro-14H-pyrano[3′,4′:6,7]indolizino[1,2-b]quinoline-3,14(4H)-dione]",51.9 nM,,
"CC[C@@]1(O)C(=O)OCc2c1cc1n(c2=O)Cc2c-1nc1ccc(OC)cc1c2Cn1nnc2c1CCCCCC2OCC(=O)O (stereo partly drawn) [P27, 2-((1-(((S)-4-ethyl-4-hydroxy-9-methoxy-3,14-dioxo-3,4,12,14-tetrahydro-1H-pyrano[3′,4′:6,7]indolizino[1,2-b]quinolin-11-yl)methyl)-4,5,6,7,8,9-hexahydro-1H-cycloocta[d][1,2,3]triazol-4-yl)oxy)acetic acid]",78.8 nM,,
"CC[C@@]1(O)C(=O)OCc2c1cc1n(c2=O)Cc2c-1nc1ccc(OC)cc1c2Cn1cc(Cc2ccccc2)nn1 [P28, (S)-11-((4-benzyl-1H-1,2,3-triazol-1-yl)methyl)-4-ethyl-4-hydroxy-9-methoxy-1,12-dihydro-14H-pyrano[3′,4′:6,7]indolizino[1,2-b]quinoline-3,14(4H)-dione]",34.2 nM,,
